Results published in patent publication US9604946B2, “Methods for modulating bacterial virulence and related compounds” (priority 2013, dated 2017).

How the values were obtained:
EHEC = experiment: qRT-PCR of gene expression in EHEC as change from wild-type expression; assay type: cell-based, enterohemorrhagic E. coli; settings: 5 and 500 nM compound
QseC = QseC (Escherichia coli O157:H7, UniProt Q8X524); settings: earlier work, U.S. Pat. No. 8,252,841; Clarke et al., 2006; Rasko et al., 2008; cited from earlier work
S. Typhimurium = S. Typhimurium replication in J774 macrophages with and without compound; assay type: cell-based; settings: 500 and 5 nM compound
Procedure: Compounds CF325, CF326, CF327, CF329, CF330, CF331, CF332, CF333, CF334, CF338, CF339, CF340, CF341, CF342, CF343, CF344, CF345, CF349, CF350, CF351, and CF352 were screened by measuring the inhibition of S. Typhimurium replication in the presence (500 and 5 nM) and absence of the compound with J774 macrophage or using a qRT PCR study comparing the levels of gene expression in the presence of 5 and 500 nM concentrations of the target compound. Compounds CF331, CF338, CF340, CF341 and CF345 were also screened using a fluorescein actin staining test to determine the number of HeLa cells infected by measuring the inhibition of AE lesion formation.

A. baumannii = experiment: Biofilm formation by A. baumannii; assay type: cell-based, Acinetobacter baumannii; settings: acts through QseC

Sequence of QseC (Q8X524 whole entry): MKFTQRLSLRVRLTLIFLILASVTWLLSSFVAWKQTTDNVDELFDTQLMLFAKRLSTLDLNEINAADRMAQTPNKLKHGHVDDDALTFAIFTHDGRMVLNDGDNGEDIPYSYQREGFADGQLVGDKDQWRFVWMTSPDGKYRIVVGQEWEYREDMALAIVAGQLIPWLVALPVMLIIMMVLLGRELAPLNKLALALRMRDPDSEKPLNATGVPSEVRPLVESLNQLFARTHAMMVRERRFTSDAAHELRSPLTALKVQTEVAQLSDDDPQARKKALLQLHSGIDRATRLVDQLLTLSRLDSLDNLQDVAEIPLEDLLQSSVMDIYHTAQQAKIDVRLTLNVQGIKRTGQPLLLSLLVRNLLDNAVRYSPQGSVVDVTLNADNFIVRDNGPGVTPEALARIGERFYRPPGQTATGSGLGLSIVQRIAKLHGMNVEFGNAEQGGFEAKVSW

Compound | activity on virulence of EHEC (gene expression level by qRT-PCR) (EHEC) | modulation of S. Typhimurium virulence (intra J774 macrophage replication) (S. Typhimurium) | other results
CC12CC3CC(C)(C1)CC(C(=O)Nc1ncc(F)s1)(C3)C2 [CF354] | antagonist activity against the virulence of EHEC | – | –
COc1ccc(C(=O)Nc2ncc[nH]2)c(OC)c1 [CF330] | acted as agonist of virulence | – | –
O=S(=O)(Nc1ccccc1)c1ccc(NC(=S)Nc2ccccc2)cc1 [LED209] | – | – | block of QseC response to the signal (QseC): can block the QseC response to the signal
COc1cccc(OC)c1C(=O)Nc1nccs1 [CF332] | – | showed little modulation of the virulence of S. Typhimurium | –
COc1ccc(C(=O)Nc2nc(-c3ccc(C)cc3)cs2)c(OC)c1 [CF329] | antagonist activity against the virulence of EHEC | showed little modulation of the virulence of S. Typhimurium | –
CCOC(=O)c1csc(NC(=O)C23CC4CC(C)(CC(C)(C4)C2)C3)n1 [CF351] | acted as agonist of virulence | – | –
CC12CC3CC(C)(C1)CC(C(=O)Nc1nc(C#N)cs1)(C3)C2 [CF352] | antagonist activity against the virulence of EHEC | – | –
O=C(Nc1nccs1)c1c(F)cc(F)cc1F [CF325] | – | showed potency in preventing S. Typhimurium virulence | –
Cc1ccc(N(CC2=NCCN2)c2cccc(O)c2)cc1 [phentolamine] | – | – | inhibition of biofilm formation (A. baumannii): inhibited; block of QseC response to the signal (QseC): block this response
O=C(Nc1nccs1)c1c(Cl)cc(Cl)cc1Cl [CF334] | acted as agonist of virulence | – | –
CC12CC3CC(C)(C1)CC(C(=O)Nc1nccs1)(C3)C2 [CF345] | antagonist activity against the virulence of EHEC | – | rank of modulation of bacterial virulence among the EHEC antagonist compounds (EHEC): greatest modulation of bacterial virulence
CC12CC3CC(C)(C1)CC(C(=O)Nc1ncco1)(C3)C2 [CF349] | acted as agonist of virulence | – | –
COc1ccc(C(=O)Nc2nc(C)c(C)s2)c(OC)c1 [CF333] | antagonist activity against the virulence of EHEC | – | –
O=C(Nc1nccs1)C12CC3CC(CC(C3)C1)C2 [CF331] | antagonist activity against the virulence of EHEC | – | rank of modulation of bacterial virulence among the EHEC antagonist compounds (EHEC): greatest modulation of bacterial virulence
CC(=O)Nc1nccs1 [CF327] | acted as agonist of virulence | showed little modulation of the virulence of S. Typhimurium | –
COc1ccc(C(=O)Nc2nccs2)c(OC)c1 [CF326] | antagonist activity against the virulence of EHEC | showed potency in preventing S. Typhimurium virulence | –
